Data set [1] concerns Aspergillus niger ATCC 14604. As to the kind of experiment: standard CMI evaluation. Type of data set: cell-based. Particulars: tested at 683-8 mg/L, both products contain 21% LAE. How it is done:
(§1) A precipitate of xanthan/LAE is formed when 150 mL of a solution containing 1.3% of xanthan gum and 300 mL of a solution containing 0.3% of LAE are mixed. Then, 2.5 g of white solid are isolated by filtration.

In data set [2] the test system is Bacillus cereus ATCC 9634. As to the kind of experiment: standard CMI evaluation. Type of data set: cell-based. Particulars: tested at 683-8 mg/L, both products contain 21% LAE. How it is done: as §1
Data set [3] relates to Candida albicans ATCC 10231. The data set can be described thus: standard CMI evaluation. Type of data set: cell-based. Particulars: tested at 683-8 mg/L, both products contain 21% LAE. As for the experimental part: as §1
The test system of data set [4] is Citrobacter intermedium CECT 401. The data set can be described thus: standard CMI evaluation. It is filed as cell-based. As to conditions: tested at 683-8 mg/L, both products contain 21% LAE. How it is done:
as §1

Data set [5] concerns Enterobacter aerogenes CECT 684. As to the kind of experiment: standard CMI evaluation. Type of data set: cell-based. Particulars: tested at 683-8 mg/L, both products contain 21% LAE. As for the experimental part: as §1
Data set [6] concerns Escherichia coli ATCC 8739. The data set can be described thus: standard CMI evaluation. It is filed as cell-based. As to conditions: tested at 683-8 mg/L, both products contain 21% LAE. How it is done:
as §1

Data set [7] relates to Pseudomonas aeruginosa ATCC 9023. As to the kind of experiment: standard CMI evaluation. Type of data set: cell-based. As to conditions: tested at 683-8 mg/L, both products contain 21% LAE. As for the experimental part: as §1
For data set [8], the system named is Rhodotorula ruba CECT 1158. The data set can be described thus: standard CMI evaluation. It is filed as cell-based. Particulars: tested at 683-8 mg/L, both products contain 21% LAE. How it is done:
as §1

The test system of data set [9] is Salmonella typhimurium ATCC 16028. The data set can be described thus: standard CMI evaluation. Type of data set: cell-based. Particulars: tested at 683-8 mg/L, both products contain 21% LAE. How it is done: as §1
Data set [10] relates to Staphylococcus aureus ATCC 6538. The data set can be described thus: standard CMI evaluation. Type of data set: cell-based. Particulars: tested at 683-8 mg/L, both products contain 21% LAE. As for the experimental part: as §1
Data set [11] is described as follows: metabolism in rats. It is filed as in vivo.
Data set [12] can be described thus: toxicological studies. Particulars: animals and humans. Type of data set: in vivo.

This is an account of results in US7662417B2, “Preservatives and protective systems” (Laboratorios Miret, S.A., priority 2002, dated 2010).

Regarding `CCCCCCCCCCCC(=O)N[C@@H](CCCN=C(N)N)C(=O)OCC.Cl` [LAE, ethyl ester of the lauramide of the arginine monohydrochloride], the CMI in data set [1] turned out to be 170 mg/L; in data set [2] it was 128 mg/L; in [3], 128 mg/L; in data set [4], 128 mg/L; in data set [5], 128 mg/L; in data set [6], 128 mg/L. Besides, the CMI was 256 mg/L in [7], 128 mg/L in data set [8], 128 mg/L in data set [9] and 128 mg/L in data set [10]. Further, the absorption and metabolism result in data set [11] is “fast absorption and metabolisation into naturally-occurring amino acids and the fatty acid lauric acid”. For the same compound, the toxicity result in data set [12] is “completely harmless”.
